Data from article PMC12081876, “Identification of PTGR2 inhibitors as a new therapeutic strategy for diabetes and obesity” (EMBO Molecular Medicine, 2025).

What was measured:
mPPARγ LBD H351A mutant = biological target: T1, mPPARγ LBD H351A mutant (Mus musculus, UniProt P37238, H351A); test: Native mass spectrometry ligand binding, mPPARγ LBD H351A; parameters: species or system murine
T1 construct: mPPARγ LBD H351A mutant
Method: Wide-type mPPARγ ligand binding domain (LBD), mPPARγ LBD C313A mutant, and mPPARγ LBD H351A mutant were mixed together in a 1:1:1 molar ratio and then incubated with 15-keto-PEG2 or pioglitazone in a 1:10 molar ratio for 5 min at room temperature, respectively. The protein mixture was buffer-exchanged into 500 mM ammonium acetate buffer pH 7.5 using 7 K Zeba™ Spin Desalting Column (cat. no, 89877, Thermo) and immediately introduced into a modified Q-Exactive mass spectrometer (Thermo). The sets of optimized parameters were applied to analyze the ligand binding, including the higher-energy collisional dissociation (HCD) energy of 20 V; spray voltage, 1.1 kV; capillary temperature, 200 °C; S-lens RF level, 200; and resolution, 12,500 at m/z 400. Spectra were acquired and processed manually using Thermo Xcalibur Qual Browser (version 4.4.16.14). The relative percentage of compound-bound forms was quantified by the UniDec software and the degree of effector coupling was calculated by normalizing the relative percentage of bound forms to the sum of the percentage of unbound and bound forms.

[1] = test system: murine PPARγ Ser273 phosphorylation; test: PPARγ Ser273 phosphorylation in adipose tissue of mice; format: in vivo, mouse; conditions: 40 mg/kg/day, 3 weeks, HFHSD
Method: The epididymal adipose tissues were obtained and lysed in RIPA buffer supplemented with 1X cOmplete™, EDTA-free Protease Inhibitor Cocktail (cat no.04693132001, Roche) and 1X PhosSTOP™ (cat. no. 4906845001, Roche).
The protein concentrations of tissue lysates were measured by Bradford reagent (cat. no. BP500-0006, Bio-Rad). The protein samples were mixed with 6X sample buffer (0.3 M Tris-HCl, pH 6.8, 0.6 M DTT, 12% SDS, 0.6% Bromophenel blue and 60% glycerol) and heated at 70 °C for 5 min. 30 μg of each sample were separated by 10% SDS-PAGE gel and were transferred to PVDF membrane. The membrane was blocked by 3% BSA in Tris-buffered saline containing 0.1% Tween-20 for 1 h at room temperature and incubated with primary antibody at 4 °C overnight. Primary antibodies include anti-Ser273 phospho-PPARγ (1:1000, cat. no. BS-4888R, Bioss), anti-PPARγ (1:1500, cat. no.16643-1-AP, Proteintech) and anti-GAPDH (1:5000, cat. no. GTX100118, GeneTex). On the next day, the membranes were incubated with the anti-rabbit IgG HRP-secondary antibody (1:10,000, cat. no. GTX213110-01, GeneTex) for 1 h at RT. Immunoblots were developed using the Immobilon Forte Western HRP Substrate (cat. no. WBLUF0500, Lot Number: 231445, Millipore) and exposed by MultiGel-21 (cat. no. MGIS-21-C2, EBL). Protein expression of phospho-PPARγ was analyzed using ImageJ software and normalized against PPARγ and GAPDH.

PTGR2 = test: 15-keto-PGE2 content in fat tissue after BPRPT0245 dosing; format: in vivo, mouse; conditions: BPRPT0245 100 mg/kg/day oral, 4 days, 2 h after last dose, vs vehicle
Method: Liquid nitrogen-frozen tissue was grinded using pestle and mortar. Approximately 500 mg of tissue powders were immersed with 400 μL of the upper layer of acetonitrile (ACN)/hexane mixture supplemented with 0.5% formic acid, and then homogenized with ceramic beads by MagNA Lyser (Roche, USA). The homogenate was then added with 600 μL ACN containing 13,14 dihydro-15-keto-PGE2-d4 (cat no. 10007978, Cayman Chemical, Ann Arbor, MI) in 1:20,000 dilution and homogenized, followed by the addition of 600 μL ddH2O. The mixture was centrifuged at 12,000 × g for 10 min at 0 °C. The lower layer was transferred to a new tube. A C-18 solid-phase extraction (SPE) cartridge (Cat no. 400020, Cayman Chemical) was sequentially activated with 20 mL methanol and 20 mL ddH2O. The protein sample was loaded into activated SPE cartridge. Once the sample passed the cartridge, the cartridge was washed with 5 mL 15% methanol and then 5 mL ddH2O. Finally, the sample was eluted with 10 mL HPLC-degree methanol (Methanol Chromasolv LC-MS, Fluka) and aliquoted into new 2-mL tubes. […]
The HPLC system consisted of an Agilent 1200 series LC System with BinPump (Waldbronn, Germany) and an Agilent Eclipse XDB C8 (3.0 × 150 mm, 5 µm) interfaced to a Sciex API 4000 tandem mass spectrometer. […] The ions monitored for BPRPT0245 were m/z 447/189 and m/z 357/195, respectively. […]

[2] = test system: F4/80-positive macrophages; test: F4/80 immunohistochemical stain of perigonadal fat; format: in vivo, mouse; conditions: 100 mg/kg/day oral, HFHSD-fed mice, vs vehicle
Method: Mice perigonadal fat were paraffin-embedded and the 4-µm tissue sections were cut from the paraffin blocks on the slides by Pathology core of the Institute of Biomedical Sciences, Academia Sinica. The slides were conducted immunochemistry staining using primary antibodies for F4/80 (1:200; cat#H0005972-M01, Abnova) and digitized using an Olympus BX51 microscope combined with an Olympus DP72 camera and CellSens Standard 1.14 software (Olympus, Germany).

[3] = test system: HFHSD-fed obese C57BL6/J mice; test: Hepatic steatosis (H&E) and hepatic triglycerides content; format: in vivo, mouse; conditions: 100 mg/kg/day oral, vs vehicle
Method: Tissues were fixed in 4% paraformaldehyde and then embedded in paraffin before sectioning and staining. The stained sections were scanned and analyzed using a MIRAX viewer (http://www.zeiss.de/mirax) and Image J software (http://rsbwed.nih.gov/ij/).
Approximately 80 mg of liver tissue was homogenized in 1800 μl of chloroform/methanol (2/1). Then, 360 μl of H2O was added. The homogenates were centrifuged at 2000 rpm for 10 min. The lower 200-μl layer was added with 100 μl of chloroform with 4% Triton X-100 and dried in a chemical hood. The dried pellet was redissolved with 200 μl of H2O and was determined the triglyceride concentrations with Wako TG LabAssay kit (cat. no. 290-63701, Wako).

T1 sequence (P37238 238-503 H351A limits assumed): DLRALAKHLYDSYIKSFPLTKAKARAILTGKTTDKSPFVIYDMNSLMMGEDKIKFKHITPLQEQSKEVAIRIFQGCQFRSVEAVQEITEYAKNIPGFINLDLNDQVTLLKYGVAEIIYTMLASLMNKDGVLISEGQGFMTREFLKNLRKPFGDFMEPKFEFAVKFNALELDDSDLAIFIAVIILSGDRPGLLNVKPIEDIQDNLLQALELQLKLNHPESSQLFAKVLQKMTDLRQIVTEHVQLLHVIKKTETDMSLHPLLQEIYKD

SMILES | effect of H351A mutation on binding (native MS) (mPPARγ LBD H351A mutant) | phosphorylation of PPARγ Ser273 [1] | increase of 15-keto-PGE2 content in inguinal fat (PTGR2) | increase of 15-keto-PGE2 content in perigonadal fat (PTGR2; trend) | F4/80-positive macrophages in perigonadal fat [2] | extent of hepatic steatosis [3] | hepatic triglycerides content [3]
CCCCCC(=O)/C=C/[C@H]1[C@H](O)CC(=O)[C@@H]1C/C=C\CCCC(=O)O [15-keto-PGE2, 15-keto-prostaglandin E2] | only a minor impact on 15-keto-PGE2 binding | dose-dependently reduced phosphorylation of Ser273 |  |  |  |  | 
Cc1[nH]c2nc(C(C)N3CCN(c4ccccc4)CC3)nn2c(=O)c1Cc1ccc(F)cc1 (stereo not shown) [BPRPT0245] |  |  | ~ 1.32 fold | ~ 1.34 fold | fewer F4/80-positive macrophages | significantly decreased | significantly decreased
